Data: a compilation of properties of binary mixtures (doi:10.1021/jp308139r)

Test: xn = mol fraction of the nth substance listed
Details: 101 kPa

## C[NH+](C)C.O=S(=O)([N-]S(=O)(=O)C(F)(F)F)C(F)(F)F + CC1COC(=O)O1
264.45 K, x2 = 0.701
  electrical conductivity: 0.519 S/m
273.15 K, x2 = 0.701
  electrical conductivity: 0.687 S/m
283.15 K, x2 = 0.701
  electrical conductivity: 1 S/m
293.15 K, x2 = 0.701
  electrical conductivity: 1.34 S/m
298.15 K, x1 = 0.0002
  electrical conductivity: 0.011 S/m
298.15 K, x1 = 0.0005
  electrical conductivity: 0.022 S/m
298.15 K, x1 = 0.002
  electrical conductivity: 0.066 S/m
298.15 K, x1 = 0.0055
  electrical conductivity: 0.155 S/m
298.15 K, x2 = 0.5091
  electrical conductivity: 1.41 S/m
298.15 K, x2 = 0.5632
  electrical conductivity: 1.5 S/m
298.15 K, x2 = 0.6802
  electrical conductivity: 1.66 S/m
298.15 K, x2 = 0.843
  electrical conductivity: 1.43 S/m
303.15 K, x2 = 0.701
  electrical conductivity: 1.74 S/m
313.15 K, x2 = 0.701
  electrical conductivity: 2.16 S/m
323.15 K, x2 = 0.701
  electrical conductivity: 2.61 S/m
333.15 K, x2 = 0.701
  electrical conductivity: 3.09 S/m
343.15 K, x2 = 0.701
  electrical conductivity: 3.59 S/m
353.15 K, x2 = 0.701
  electrical conductivity: 4.1 S/m

## C[S+](C)C.O=S(=O)([N-]S(=O)(=O)C(F)(F)F)C(F)(F)F + CC#N
283.15 K, x2 = 0.87
  electrical conductivity: 4.66 S/m
293.45 K, x2 = 0.87
  electrical conductivity: 5.28 S/m
298.15 K, x1 = 0.0001
  electrical conductivity: 0.043 S/m
298.15 K, x1 = 0.0002
  electrical conductivity: 0.103 S/m
298.15 K, x1 = 0.0003
  electrical conductivity: 0.148 S/m
298.15 K, x1 = 0.0033
  electrical conductivity: 0.839 S/m
298.15 K, x1 = 0.0129
  electrical conductivity: 2.17 S/m
298.15 K, x2 = 0.4883
  electrical conductivity: 2 S/m
298.15 K, x2 = 0.56
  electrical conductivity: 2.74 S/m
298.15 K, x2 = 0.64
  electrical conductivity: 3.56 S/m
298.15 K, x2 = 0.72
  electrical conductivity: 4.44 S/m
298.15 K, x2 = 0.8
  electrical conductivity: 5.35 S/m
298.15 K, x2 = 0.86
  electrical conductivity: 5.74 S/m
298.15 K, x2 = 0.9497
  electrical conductivity: 4.59 S/m
303.25 K, x2 = 0.87
  electrical conductivity: 5.88 S/m
313.15 K, x2 = 0.87
  electrical conductivity: 6.45 S/m
333.15 K, x2 = 0.87
  electrical conductivity: 7.48 S/m
343.15 K, x2 = 0.87
  electrical conductivity: 8.05 S/m
353.15 K, x2 = 0.87
  electrical conductivity: 8.67 S/m

## C[S+](C)C.O=S(=O)([N-]S(=O)(=O)C(F)(F)F)C(F)(F)F + O=C1CCCO1
264.75 K, x2 = 0.8
  electrical conductivity: 0.887 S/m
273.15 K, x2 = 0.8
  electrical conductivity: 1.11 S/m
283.85 K, x2 = 0.8
  electrical conductivity: 1.43 S/m
293.15 K, x2 = 0.8
  electrical conductivity: 1.75 S/m
298.15 K, x1 = 0.0001
  electrical conductivity: 0.011 S/m
298.15 K, x1 = 0.0002
  electrical conductivity: 0.015 S/m
298.15 K, x1 = 0.0003
  electrical conductivity: 0.025 S/m
298.15 K, x1 = 0.0005
  electrical conductivity: 0.038 S/m
298.15 K, x1 = 0.0008
  electrical conductivity: 0.052 S/m
298.15 K, x1 = 0.0047
  electrical conductivity: 0.226 S/m
298.15 K, x1 = 0.0187
  electrical conductivity: 0.583 S/m
298.15 K, x2 = 0.5398
  electrical conductivity: 1.35 S/m
298.15 K, x2 = 0.5798
  electrical conductivity: 1.49 S/m
298.15 K, x2 = 0.66
  electrical conductivity: 1.74 S/m
298.15 K, x2 = 0.72
  electrical conductivity: 1.9 S/m
298.15 K, x2 = 0.8
  electrical conductivity: 2.01 S/m
298.15 K, x2 = 0.8695
  electrical conductivity: 1.89 S/m
303.15 K, x2 = 0.8
  electrical conductivity: 2.11 S/m
313.15 K, x2 = 0.8
  electrical conductivity: 2.5 S/m
323.15 K, x2 = 0.8
  electrical conductivity: 2.9 S/m
333.15 K, x2 = 0.8
  electrical conductivity: 3.32 S/m
343.15 K, x2 = 0.8
  electrical conductivity: 3.74 S/m
353.15 K, x2 = 0.8
  electrical conductivity: 4.17 S/m

## C[S+](C)C.O=S(=O)([N-]S(=O)(=O)C(F)(F)F)C(F)(F)F + CC1COC(=O)O1
265.55 K, x2 = 0.76
  electrical conductivity: 0.468 S/m
276.95 K, x2 = 0.76
  electrical conductivity: 0.708 S/m
294.65 K, x2 = 0.76
  electrical conductivity: 1.18 S/m
298.15 K, x1 = 0.0001
  electrical conductivity: 0.009 S/m
298.15 K, x1 = 0.0003
  electrical conductivity: 0.023 S/m
298.15 K, x1 = 0.0053
  electrical conductivity: 0.177 S/m
298.15 K, x2 = 0.5156
  electrical conductivity: 1.07 S/m
298.15 K, x2 = 0.565
  electrical conductivity: 1.21 S/m
298.15 K, x2 = 0.6897
  electrical conductivity: 1.37 S/m
298.15 K, x2 = 0.7404
  electrical conductivity: 1.39 S/m
298.15 K, x2 = 0.8098
  electrical conductivity: 1.34 S/m
298.15 K, x2 = 0.8571
  electrical conductivity: 1.25 S/m
298.15 K, x2 = 0.9218
  electrical conductivity: 0.964 S/m
298.15 K, x2 = 0.9792
  electrical conductivity: 0.39 S/m
303.15 K, x2 = 0.76
  electrical conductivity: 1.44 S/m
313.15 K, x2 = 0.76
  electrical conductivity: 1.8 S/m
323.15 K, x2 = 0.76
  electrical conductivity: 2.16 S/m
343.15 K, x2 = 0.76
  electrical conductivity: 2.94 S/m
353.15 K, x2 = 0.76
  electrical conductivity: 3.34 S/m

## C[NH+](C)C.O=S(=O)([N-]S(=O)(=O)C(F)(F)F)C(F)(F)F + O=C1CCCO1
263.15 K, x2 = 0.74
  electrical conductivity: 0.948 S/m
273.15 K, x2 = 0.74
  electrical conductivity: 1.19 S/m
283.15 K, x2 = 0.74
  electrical conductivity: 1.61 S/m
293.15 K, x2 = 0.74
  electrical conductivity: 2.01 S/m
298.15 K, x1 = 0.0001
  electrical conductivity: 0.005 S/m
298.15 K, x1 = 0.0003
  electrical conductivity: 0.027 S/m
298.15 K, x1 = 0.0046
  electrical conductivity: 0.214 S/m
298.15 K, x1 = 0.0188
  electrical conductivity: 0.613 S/m
298.15 K, x2 = 0.5778
  electrical conductivity: 2.09 S/m
298.15 K, x2 = 0.5976
  viscosity: 6.89 mPa·s
298.15 K, x2 = 0.639
  electrical conductivity: 2.26 S/m
298.15 K, x2 = 0.672
  viscosity: 5.66 mPa·s
298.15 K, x2 = 0.6802
  electrical conductivity: 2.35 S/m
298.15 K, x2 = 0.7426
  electrical conductivity: 2.44 S/m
298.15 K, x2 = 0.7428
  viscosity: 4.51 mPa·s
298.15 K, x2 = 0.8047
  electrical conductivity: 2.36 S/m
298.15 K, x2 = 0.8088
  viscosity: 3.5 mPa·s
298.15 K, x2 = 0.8692
  electrical conductivity: 2.06 S/m
298.15 K, x2 = 0.8803
  viscosity: 2.64 mPa·s
298.15 K, x2 = 0.9328
  electrical conductivity: 1.44 S/m
303.15 K, x2 = 0.5976
  viscosity: 5.87 mPa·s
303.15 K, x2 = 0.672
  viscosity: 4.85 mPa·s
303.15 K, x2 = 0.74
  electrical conductivity: 2.49 S/m
303.15 K, x2 = 0.7428
  viscosity: 3.91 mPa·s
313.15 K, x2 = 0.5976
  viscosity: 4.35 mPa·s
313.15 K, x2 = 0.74
  electrical conductivity: 2.97 S/m
313.15 K, x2 = 0.7428
  viscosity: 3.01 mPa·s
313.15 K, x2 = 0.8088
  viscosity: 2.35 mPa·s
323.15 K, x2 = 0.5976
  viscosity: 3.39 mPa·s
323.15 K, x2 = 0.672
  viscosity: 2.84 mPa·s
323.15 K, x2 = 0.74
  electrical conductivity: 3.47 S/m
323.15 K, x2 = 0.7428
  viscosity: 2.29 mPa·s
323.15 K, x2 = 0.8088
  viscosity: 1.91 mPa·s
323.15 K, x2 = 0.8803
  viscosity: 1.49 mPa·s
333.15 K, x2 = 0.5976
  viscosity: 2.74 mPa·s
333.15 K, x2 = 0.672
  viscosity: 2.34 mPa·s
333.15 K, x2 = 0.8088
  viscosity: 1.48 mPa·s
333.15 K, x2 = 0.8803
  viscosity: 1.2 mPa·s
335.15 K, x2 = 0.74
  electrical conductivity: 4.11 S/m
343.15 K, x2 = 0.5976
  viscosity: 2.22 mPa·s
343.15 K, x2 = 0.672
  viscosity: 1.9 mPa·s
343.15 K, x2 = 0.7428
  viscosity: 1.45 mPa·s
343.15 K, x2 = 0.8088
  viscosity: 1.17 mPa·s
343.45 K, x2 = 0.74
  electrical conductivity: 4.56 S/m
353.15 K, x2 = 0.74
  electrical conductivity: 5.09 S/m

## C[NH+](C)C.O=S(=O)([N-]S(=O)(=O)C(F)(F)F)C(F)(F)F + CC#N
265.55 K, x2 = 0.86
  electrical conductivity: 4.31 S/m
273.15 K, x2 = 0.86
  electrical conductivity: 4.81 S/m
283.15 K, x2 = 0.86
  electrical conductivity: 5.49 S/m
293.15 K, x2 = 0.86
  electrical conductivity: 6.17 S/m
298.15 K, x1 = 0.0001
  electrical conductivity: 0.022 S/m
298.15 K, x1 = 0.0004
  electrical conductivity: 0.273 S/m
298.15 K, x1 = 0.0008
  electrical conductivity: 0.438 S/m
298.15 K, x1 = 0.0021
  electrical conductivity: 0.755 S/m
298.15 K, x1 = 0.0083
  electrical conductivity: 1.81 S/m
298.15 K, x2 = 0.5587
  electrical conductivity: 3.69 S/m
298.15 K, x2 = 0.6
  electrical conductivity: 4.08 S/m
298.15 K, x2 = 0.72
  electrical conductivity: 5.54 S/m
298.15 K, x2 = 0.78
  electrical conductivity: 6.28 S/m
298.15 K, x2 = 0.84
  electrical conductivity: 6.76 S/m
298.15 K, x2 = 0.8901
  electrical conductivity: 6.73 S/m
298.15 K, x2 = 0.938
  electrical conductivity: 5.86 S/m
298.15 K, x2 = 0.9677
  electrical conductivity: 4.21 S/m
313.15 K, x2 = 0.86
  electrical conductivity: 7.54 S/m
323.15 K, x2 = 0.86
  electrical conductivity: 8.22 S/m
333.15 K, x2 = 0.86
  electrical conductivity: 8.88 S/m
343.15 K, x2 = 0.86
  electrical conductivity: 9.57 S/m
353.15 K, x2 = 0.86
  electrical conductivity: 10.2 S/m

## O=C1CCCO1 + C[NH+](C)C.O=S(=O)([N-]S(=O)(=O)C(F)(F)F)C(F)(F)F
298.15 K, x1 = 1
  viscosity: 1.74 mPa·s
303.15 K, x1 = 1
  viscosity: 1.61 mPa·s
313.15 K, x1 = 1
  viscosity: 1.39 mPa·s
323.15 K, x1 = 1
  viscosity: 1.22 mPa·s
343.15 K, x1 = 1
  viscosity: 0.96 mPa·s
